What was measured:
[1] = system: control sera (pooled serum of ten healthy LUMC hospital workers; commercial negative donor pooled serum from the Dutch bloodbank); format: binding, human; set-up: Binding of Control serum LUMC to linear peptides / Binding of Control serum Blood-bank to linear peptides / Binding of Control serum LUMC to looped peptides / Binding of Control Serum Blood-Bank to Looped peptides / Binding of Control serum LUMC to linear peptides of the protein M of SARS-CoV Urbani / Binding of Control serum Blood-bank to linear peptides of the protein M of SARS-CoV Urbani / Binding of Control serum LUMC to looped peptides of the protein M of SARS-CoV Urbani / Binding of Control Serum Blood-Bank to Looped peptides of the protein M of SARS-CoV Urbani: unit not given here
[2] = system: rabbit serum obtained by immunizing a rabbit with the SARS-CoV strain Frankfurt 1; format: binding; set-up: Binding of a rabbit serum to linear peptides / Binding of a rabbit serum to looped peptides / Rabbit serum linear peptides / Rabbit serum looped peptides / Binding of a rabbit serum to linear peptides of protein N of SARS-CoV Urbani (Rabbit serum linear peptides) / Binding of a rabbit serum to looped/cyclic peptides of protein N of SARS-CoV Urbani (Rabbit serum looped peptides): unit not given here

Sequence	Binding of Control Serum Blood-Bank to Looped peptides [1]	Binding of Control serum Blood-bank to linear peptides [1]	Binding of Control serum LUMC to linear peptides [1]	Binding of Control serum LUMC to looped peptides [1]	Rabbit serum linear peptides [2]	Rabbit serum looped peptides [2]	Binding of a rabbit serum to linear peptides [2]	Binding of a rabbit serum to looped peptides [2]	Recognition of the peptide by the rabbit serum [2]	Binding of Control Serum Blood-Bank to Looped peptides of the protein M of SARS-CoV Urbani [1]	Binding of Control serum Blood-bank to linear peptides of the protein M of SARS-CoV Urbani [1]	Binding of Control serum LUMC to linear peptides of the protein M of SARS-CoV Urbani [1]	Binding of Control serum LUMC to looped peptides of the protein M of SARS-CoV Urbani [1]	Binding of Control Serum Blood-Bank to Looped peptides of the protein X3 of SARS-CoV Urbani [1]	Binding of Control serum Blood-bank to linear peptides of the protein X3 of SARS-CoV Urbani [1]	Binding of Control serum LUMC to linear peptides of the protein X3 of SARS-CoV Urbani [1]	Binding of Control serum LUMC to looped peptides of the protein X3 of SARS-CoV Urbani [1]
QDPAGGALIARCWYL	0.8	0.7	0.3	0.6	0.5	0.9											
DYQIGGYSEDRHSGV	0.5	0.6	0.5	0.7			0.1	0.5									
HQNSKKTTKLVVILR	0.6	0.5	0.8	0.6					recognized								
KTMSLYMAISPKFTT	0.7	0.7	0.6	1.0			0.3	0.8									
TKLVVILRIGTQVLK	0.6	0.7	0.5	0.7			0.3	0.6									
LYHYQECVRGTTVLL	0.7	0.6	0.6	0.6	0.6	0.3											
AGHPLGRCDIKDLPK					0.1	0.1				0.9	1.1	0.8	0.7				
RVKNLNSSEGVPDLL	0.7	1.0	1.0	1.0			0.8	0.6									
AQPVKIDNASPASTV	1.0	0.7	0.6	1.0			0.1	0.5									
YSELDDEEPMELDYP					0.3	0.3								0.8	0.7	0.9	0.8
YCIPYNSVTDTIVVT	0.7	0.8	0.7	0.7			0.1	0.5									
KPTVYVYSRVKNLNS	0.9	0.7	0.8	0.9			0.6	0.9									
EDRHSGVKDYVVVHG	1.1	0.9	0.9	0.7			0.1	0.3									
LGRCDIKDLPKEITV					0.1	0.6				0.8	0.7	0.5	0.8				
WHTMVQTCTPNVTIN	0.5	1.0	0.5	0.4	0.5	0.0											
NVSLVKPTVYVYSRV	0.7	0.6	0.5	0.8			0.5	0.3									

Sequence	Binding of Control Serum Blood-Bank to Looped peptides [1]	Binding of Control serum Blood-bank to linear peptides [1]	Binding of Control serum LUMC to linear peptides [1]	Binding of Control serum LUMC to looped peptides [1]	Rabbit serum linear peptides [2]	Rabbit serum looped peptides [2]	Binding of a rabbit serum to linear peptides [2]	Binding of a rabbit serum to looped peptides [2]	Recognition of the peptide by the rabbit serum [2]	Binding of Control Serum Blood-Bank to Looped peptides of the protein M of SARS-CoV Urbani [1]	Binding of Control serum Blood-bank to linear peptides of the protein M of SARS-CoV Urbani [1]	Binding of Control serum LUMC to linear peptides of the protein M of SARS-CoV Urbani [1]	Binding of Control serum LUMC to looped peptides of the protein M of SARS-CoV Urbani [1]	Binding of Control Serum Blood-Bank to Looped peptides of the protein X3 of SARS-CoV Urbani [1]	Binding of Control serum Blood-bank to linear peptides of the protein X3 of SARS-CoV Urbani [1]	Binding of Control serum LUMC to linear peptides of the protein X3 of SARS-CoV Urbani [1]	Binding of Control serum LUMC to looped peptides of the protein X3 of SARS-CoV Urbani [1]
RHSGVKDYVVVHGYF	0.7	0.6	0.5	0.6			0.1	0.4									
IAIAMACIVGLMWLS					0.1	0.3				0.8	0.5	0.6	0.7				
KDPPNVQIHTIDGSS	1.1	0.3	0.3	1.1			0.1	0.9									
LCAYCCNIVNVSLVK	0.8	1.1	0.8	0.7			0.7	0.4									
LTKKNYSELDDEEPM					0.2	0.4								0.8	0.9	0.6	1.0
VKPTVYVYSRVKNLN	0.8	0.8	0.4	0.8			0.5	0.7									
FNKLVKDPPNVQIHT	0.8	0.8	0.9	0.7			0.1	0.7									
CNIVNVSLVKPTVYV	0.6	0.7	0.8	0.8			0.1	0.5									
PLADNKFALTCTSTH	0.6	0.8	0.5	0.7	1.1	0.0											
TQVLKTMSLYMAISP	0.7	0.7	0.7	0.8			0.1	0.4									
ADNKFALTCTSTHFA	0.7	0.8	0.9	0.9	0.7	0.2											
WHTHNYDYCIPYNSV	0.7	0.7	0.8	0.9			0.1	0.6									
YQECVRGTTVLLKEP	0.9	0.8	0.7	0.8	0.5	0.5											
ISSIVRQLFKPLTKK					0.3	0.5								0.8	0.8	0.9	0.7
LIIIMRTFRIAIWNL					0.5	0.3								0.6	0.7	0.6	0.7

From patent US20070128217A1 (priority 2003, published 2007)
